Experimental data published in patent US20200255884A1, “METHOD OF DETECTION OF DNA END(S) AND ITS USE” (INTODNA SP. Z O.O., priority 2017, published 2020).

Columns and labels:
HeLa 21-4 cells [1] = experiment: DNA ends detection in fixed HeLa cells subjected to damaging agents (H2O2, Tpt), Procedure 1; format: cell-based; details: 30 min at 37 °C, H2O2 4 mM, Tpt 20 μM
Method: Procedure: • 1. Pre-preparation (optional): • Incubation of live cells with 0.5-10 mM Tris (5 min-1 h at room temperature (RT)), cells should be monitored for morphological abnormalities. • 2. Fixation and permeabilization: • a. Incubation with 1%-4% formaldehyde solution, 10-15 min, 4° C. (optional) • b. Incubation with an […] detergent (e.g. Triton X-100 (0.25-3%) 10 min-1 h, RT. (optional) • c. Incubation in 70% ethanol in water, 1 h minimum but preferred 12-18 h, −20° C., sample should be stable for several months. (optional but most preferred) • 3. Pre-blocking (optional): • a. Wash (PBS 1×5 min) • b. Streptavidin solution—incubation performed on a droplet, 30 min, RT • c. Wash (PBS 3×5 min) • d. Biotin solution—incubation performed on a droplet, 30 min, RT • e. Wash (PBS 3×5 min) • 4. Increasing accessibility of DNA ends: • Incubation with 0.5-10 mM EDTA in water, 10 min-1 h, RT. • 5. Incorporation procedure: • Incorporation of unmodified and modified nucleotides (e.g. BrdU) using terminal deoxynucleotidyl transferase: • a. incubation is performed on a droplet in a humid chamber • b. samples are rinsed in wash buffers • 6. Blocking: • Incubation with 1-5% BSA solution in PBS (from 1 h to overnight in 4° C., RT). • 7. Incubation with primary antibodies—performed on a droplet in a humid chamber: • a. primary antibodies type 1 (e.g. mouse monoclonal against BrdU), preferred dilution 1:100 in 1-5% BSA, 1 h, RT • b. wash (PBS 3×5 min) • c. primary antibodies type 2 (e.g. rabbit polyclonal against BrdU), preferred dilution 1:100 in 1-5% BSA, 1 h, RT • d. wash (PBS 3×5 min) • 8. PLA procedure: • a. incubation with PLA Probes diluted in 1% BSA (37° C., 60 min, reaction on a droplet, in a humid chamber) in 40 μl of the reaction mixture per one coverslip: • 8 μl of PLA Probe MINUS stock (e.g. anti-mouse) • 8 μl of PLA Probe PLUS stock (e.g. anti-rabbit) • 24 μl of 1% BSA • b. wash samples with Wash Buffer A (2×5 min) • c. ligation—incubation (37° C., 30 min, reaction on a droplet, in a humid chamber) in 40 μl of the reaction mixture per one coverslip: • 8 μl of 5× Ligation stock (Sigma, Duolink, DUO82009), • 31 μl of ultrapure, RNAse/DNAse free, distilled water, • 1 μl of Ligase (1 U/μl) (Sigma, Duolink, DUO82027 or DUO82029) • d. wash samples with Wash Buffer A (2×2 min) • e. amplification—incubation (37° C., 100 min, reaction performed on a droplet, in a humid chamber) in 40 μl of the reaction mixture per one coverslip: • 8 μl of 5× Amplification stock (Sigma, Duolink, DUO82060 or DUO82011), • 31.5 μl of ultrapure, RNAse/DNAse free, distilled water, • 0.5 μl of Polymerase (10 U/μl) (Sigma, Duolink, DUO82028 or DUO82030) • 9. Imaging of samples in PBS using a fluorescence microscope. […]

HeLa 21-4 cells [2] = experiment: Detection of DNA breaks induced by photodynamic effect (ethidium bromide + 488 nm laser) in HeLa cells, Procedure 1; format: cell-based; details: ethidium bromide (500 μM) 10 min, dose 9 mJ
Method: In this experiment the DNA breaks were induced by treating live cells (HeLa 21-4 cells, obtained from prof. P.R. Cook, Oxford University) with ethidium bromide (500 μM) for 10 min and then parking the laser beam (488 nm) at a chosen place inside the nucleus (dose: 9 mJ) 2 minutes after illumination step 2 of Procedure 1 was performed. The aim of the experiment was to directly detect DNA break (s) inflicted at a specific area of the cell nucleus by a photodynamic effect.
HeLa 21-4 cells were first seeded on 18-mm coverslips and cultured for 3 days in DMEM supplemented with 10% FBS. After culturing, DNA damage was induced in chosen cells, as described previously, followed by incubation in 70% ethanol in water, 15 h, −20° C. After that, increasing of accessibility of DNA ends (step 4) was performed with 10 mM EDTA in water, 1 h, RT. Incorporation of modified (BrdUTP) nucleotides (Phoenix Flow Systems) by terminal deoxynucleotidyl transferase was performed according to the kit supplier's instructions (APO-BRDU kit, Phoenix Flow Systems). The cells were then incubated with 1% BSA solution in PBS (overnight in 4° C.). The incubation with primary antibodies type 1 and 2 according to step 7 of Procedure 2 were performed using mouse monoclonal anti-BrdU (Abcam, ab8039) and rabbit polyclonal anti-BrdU (Abcam, ab152095) (1:100 in 1% BSA), respectively. […]

Structure (SMILES): CC[C@@]1(O)C(=O)OCc2c1cc1n(c2=O)Cc2cc3c(CN(C)C)c(O)ccc3nc2-1 [Tpt, topotecan]
- percentage of cells that show signs of heavy DNA damage (apoptotic cells) in the population (HeLa 21-4 cells [1]; untreated less than 5%): approximately 18%
- average number of detectable regions of incorporation of BrdU (free ends of DNA) per cell (HeLa 21-4 cells [1]; ± standard error of the mean): 16.39±4.92

Structure (SMILES): CC[n+]1c(-c2ccccc2)c2cc(N)ccc2c2ccc(N)cc21 [ethidium bromide]
- damaged nuclei with fluorescence focus visible at the illuminated place or in its direct proximity (HeLa 21-4 cells [2]): 90%
